The numbers were not newly measured in patent US6403571B2, “Combination therapy for reducing the risks associated with cardiovascular disease” (Merck & Co., Inc., priority 1996, dated 2002), which cites them from elsewhere.

Structures can show the parent of a compound that is named as a salt. Where a SMILES comes first, the peptide text is derived from it. Bridges are numbered along the chain shown (N, C = ends). [ ]: non-standard residue; d: D form. hArg = N=C(N)NCCCC[C@H](N)C(=O)O; Mpa = O=C(O)CCS

Data set [1] deals with T1, GP IIb/IIIa (Homo sapiens, UniProt P05106+P08514).
For data set [2], the target named is T1, GP IIb/IIIa. Particulars: for selectivity for GP IIb/IIIa: administered intravenously.
A further data set has as its target αvβ3 (Homo sapiens, UniProt P05106+P06756).
The conditions of data set [3]: prodrug, requires biotransformation in vivo to its active form.

αvβ3, sequence (P06756 31-889 limits assumed): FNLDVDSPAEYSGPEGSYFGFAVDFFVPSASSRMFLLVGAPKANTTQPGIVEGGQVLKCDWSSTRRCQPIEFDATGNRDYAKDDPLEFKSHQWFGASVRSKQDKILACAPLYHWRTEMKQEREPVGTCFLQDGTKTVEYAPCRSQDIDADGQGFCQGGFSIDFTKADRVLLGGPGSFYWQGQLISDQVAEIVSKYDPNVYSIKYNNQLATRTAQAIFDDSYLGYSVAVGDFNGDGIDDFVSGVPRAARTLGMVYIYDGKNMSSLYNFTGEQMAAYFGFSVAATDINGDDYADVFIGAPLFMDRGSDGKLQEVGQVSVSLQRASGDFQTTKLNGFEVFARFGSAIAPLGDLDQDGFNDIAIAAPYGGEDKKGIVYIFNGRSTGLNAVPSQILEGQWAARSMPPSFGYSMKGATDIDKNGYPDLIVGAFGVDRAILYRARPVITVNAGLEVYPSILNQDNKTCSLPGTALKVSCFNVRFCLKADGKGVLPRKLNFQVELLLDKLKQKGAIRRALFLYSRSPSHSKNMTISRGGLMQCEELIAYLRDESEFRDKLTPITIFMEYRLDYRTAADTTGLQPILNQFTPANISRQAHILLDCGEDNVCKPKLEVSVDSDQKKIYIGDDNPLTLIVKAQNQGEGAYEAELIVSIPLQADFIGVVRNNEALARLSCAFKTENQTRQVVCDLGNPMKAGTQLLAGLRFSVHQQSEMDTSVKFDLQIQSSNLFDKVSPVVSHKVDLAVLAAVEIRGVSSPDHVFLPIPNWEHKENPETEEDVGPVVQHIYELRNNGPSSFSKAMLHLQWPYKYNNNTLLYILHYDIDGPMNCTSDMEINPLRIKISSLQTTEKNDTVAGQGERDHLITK
αvβ3, sequence (P06756 891-1048 partner limits assumed): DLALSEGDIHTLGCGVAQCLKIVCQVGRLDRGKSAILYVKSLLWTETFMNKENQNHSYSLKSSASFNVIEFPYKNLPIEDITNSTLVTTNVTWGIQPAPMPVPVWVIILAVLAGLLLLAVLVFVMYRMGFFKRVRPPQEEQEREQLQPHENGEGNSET
αvβ3, sequence (P05106 27-788): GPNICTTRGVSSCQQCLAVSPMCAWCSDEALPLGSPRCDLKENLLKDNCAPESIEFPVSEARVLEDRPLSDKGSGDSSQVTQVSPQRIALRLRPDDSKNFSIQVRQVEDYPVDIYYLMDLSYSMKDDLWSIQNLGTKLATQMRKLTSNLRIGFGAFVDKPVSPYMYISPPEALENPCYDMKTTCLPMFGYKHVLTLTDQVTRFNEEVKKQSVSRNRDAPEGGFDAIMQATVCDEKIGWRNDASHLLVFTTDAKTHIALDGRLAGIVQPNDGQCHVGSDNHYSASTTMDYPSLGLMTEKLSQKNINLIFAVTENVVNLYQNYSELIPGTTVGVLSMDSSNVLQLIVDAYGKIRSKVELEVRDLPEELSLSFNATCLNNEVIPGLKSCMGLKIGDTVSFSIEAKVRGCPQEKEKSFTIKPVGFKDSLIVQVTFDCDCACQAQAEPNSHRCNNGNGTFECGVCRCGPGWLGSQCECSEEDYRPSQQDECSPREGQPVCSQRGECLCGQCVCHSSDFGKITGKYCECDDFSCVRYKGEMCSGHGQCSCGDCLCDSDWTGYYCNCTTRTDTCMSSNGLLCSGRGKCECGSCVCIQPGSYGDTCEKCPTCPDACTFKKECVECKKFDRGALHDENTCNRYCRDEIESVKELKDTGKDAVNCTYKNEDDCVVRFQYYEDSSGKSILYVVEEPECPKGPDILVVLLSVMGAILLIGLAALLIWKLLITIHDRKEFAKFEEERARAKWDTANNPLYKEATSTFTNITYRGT

In the case of “7E3: monoclonal antibody which blocks the GP IIb/IIIa receptor and the αvβ3 receptor [Compound 7E3]”, the need for transfusion with GP IIb/IIIa [1] (7E3 added to heparin and aspirin, increasing from 3%) is reported as 6%. In addition, in the data set with GP IIb/IIIa [1] (7E3 added to heparin and aspirin, increasing from 7%), the “incidence of patients with decreased hematocrit” value is listed as 15%. In the data set with GP IIb/IIIa [1] (7E3 added to standard regime of heparin and aspirin, decrease from 12.8% without blockade), the “combined endpoints of death, non-fatal myocardial infarction (MI) and need for urgent revascularization” value was 8.3%.
As for `N=C(N)NCCCC[C@@H]1NC(=O)CCSSC[C@@H](C(N)=O)NC(=O)[C@@H]2CCCN2C(=O)[C@H](Cc2c[nH]c3ccccc23)NC(=O)[C@H](CC(=O)O)NC(=O)CNC1=O` [Integrelin] ([Mpa][hArg]GDWPC-NH2; disulfide 1-7), at GP IIb/IIIa [2], the “effect on ligand binding to GP IIb/IIIa” value is recorded as “inhibits ligand binding”. Moreover, the “effect on ligand binding to αvβ3” value on αvβ3 is “very little effect”.
Take `CCCCS(=O)(=O)N[C@@H](Cc1ccc(OCCCCC2CCNCC2)cc1)C(=O)O` [MK-383, 2-S-(n-Butylsulfonylamino)-3[4-piperidin-4-yl)butyloxyphenyl]propionic acid hydrochloride]: the “selectivity for GP IIb/IIIa” value on GP IIb/IIIa [2] is listed as “selective”.
Consider `N=C(N)c1ccc(C(=O)N[C@@H](Cc2ccc(O)cc2)C(=O)N2CCC(OCC(=O)O)CC2)cc1` [Ro 44-9883], for which the “selectivity for GP IIb/IIIa” value at GP IIb/IIIa [2] is “selective”.
Consider `C#C[C@H](CC(=O)OCC)NC(=O)CCC(=O)Nc1ccc(C(=N)N)cc1` [SC54684, ethyl 3-[[4-[[4-(aminoiminomethyl)phenyl]amino]-1,4-dioxobutyl]amino]-4-pentynoate], for which the oral bioavailability result in data set [3] is given as “high oral bioavailability”.
